Measurements from publication PMC10866072, “Design, synthesis, molecular modelling and biological evaluation of novel 6-amino-5-cyano-2-thiopyrimidine derivatives as potent anticancer agents against leukemia and apoptotic inducers” (Journal of Enzyme Inhibition and Medicinal Chemistry, 2024).

Legend:
RPMI-8226 = assay type: cell-based
PI3Kδ = target: T1, PI3Kδ (Homo sapiens, UniProt O00329); assay: PI3 Kinase Activity/Inhibitor Assay Kit; assay type: biochemical; conditions: mean of two independent replicates ± SD
T1 construct: purchased Millipore Corporation 17-493 (assay kit)
Description: (§1) In vitro PI3 kinases inhibitory activity assay
(§2) All buffers, working standards and samples were prepared.
(§3) A total of 5 μl/well 5X kinase reaction buffer was added following the addition of the substrate, then distilled water was added to fill up to 25 μl. After incubation for 1 h at room temperature, 25 μl of biotinylated PIP3/EDTA working solution was added to all wells except the buffer control. Instead, 25 μl tris-buffered saline (TBS) was added to the buffer control wells. A general receptor phosphoinsitides -1 working solution was added to all wells then, was incubated for 1 h at room temperature. After incubation, all wells were washed with 200 μl 1X TBS -Tween followed by addition of 50 μl (horseradish peroxide as econjugated streptavidin) SA -HRP then were incubated for 1 h at room temperature. All wells were washed using 100 μl 1X TBS -Tween and TBS followed by addition of 100 μl of substrate 3,3’,5,5’-tetramethylbenzidine and kept in dark for 5–20 min.

SF-539 = assay type: cell-based
DU-145 = assay type: cell-based
HOP-92 = assay type: cell-based
PI3Kβ = target: T2, PI3Kβ (Homo sapiens, UniProt P42338); assay: PI3 Kinase Activity/Inhibitor Assay Kit; assay type: biochemical; conditions: mean of two independent replicates ± SD
T2 construct: purchased Millipore Corporation 17-493 (assay kit)
Description: as §1, §2, §3

SN12C = assay type: cell-based, human; conditions: Homo sapiens, one dose 10^-5 M, 48 h
PI3Kα = target: T3, PI3Kα (Homo sapiens, UniProt P42336); assay: PI3 Kinase Activity/Inhibitor Assay Kit; assay type: biochemical; conditions: mean of two independent replicates ± SD
T3 construct: purchased Millipore Corporation 17-493 (assay kit)
Description: as §1, §2, §3

SK-MEL-28 = assay type: cell-based
[1] = Homo sapiens, one dose 10^-5 M, 48 h
[2] = Homo sapiens, five-dose, read-out: LC50 (the source's name)

T3 sequence (P42336 whole entry, species assumed): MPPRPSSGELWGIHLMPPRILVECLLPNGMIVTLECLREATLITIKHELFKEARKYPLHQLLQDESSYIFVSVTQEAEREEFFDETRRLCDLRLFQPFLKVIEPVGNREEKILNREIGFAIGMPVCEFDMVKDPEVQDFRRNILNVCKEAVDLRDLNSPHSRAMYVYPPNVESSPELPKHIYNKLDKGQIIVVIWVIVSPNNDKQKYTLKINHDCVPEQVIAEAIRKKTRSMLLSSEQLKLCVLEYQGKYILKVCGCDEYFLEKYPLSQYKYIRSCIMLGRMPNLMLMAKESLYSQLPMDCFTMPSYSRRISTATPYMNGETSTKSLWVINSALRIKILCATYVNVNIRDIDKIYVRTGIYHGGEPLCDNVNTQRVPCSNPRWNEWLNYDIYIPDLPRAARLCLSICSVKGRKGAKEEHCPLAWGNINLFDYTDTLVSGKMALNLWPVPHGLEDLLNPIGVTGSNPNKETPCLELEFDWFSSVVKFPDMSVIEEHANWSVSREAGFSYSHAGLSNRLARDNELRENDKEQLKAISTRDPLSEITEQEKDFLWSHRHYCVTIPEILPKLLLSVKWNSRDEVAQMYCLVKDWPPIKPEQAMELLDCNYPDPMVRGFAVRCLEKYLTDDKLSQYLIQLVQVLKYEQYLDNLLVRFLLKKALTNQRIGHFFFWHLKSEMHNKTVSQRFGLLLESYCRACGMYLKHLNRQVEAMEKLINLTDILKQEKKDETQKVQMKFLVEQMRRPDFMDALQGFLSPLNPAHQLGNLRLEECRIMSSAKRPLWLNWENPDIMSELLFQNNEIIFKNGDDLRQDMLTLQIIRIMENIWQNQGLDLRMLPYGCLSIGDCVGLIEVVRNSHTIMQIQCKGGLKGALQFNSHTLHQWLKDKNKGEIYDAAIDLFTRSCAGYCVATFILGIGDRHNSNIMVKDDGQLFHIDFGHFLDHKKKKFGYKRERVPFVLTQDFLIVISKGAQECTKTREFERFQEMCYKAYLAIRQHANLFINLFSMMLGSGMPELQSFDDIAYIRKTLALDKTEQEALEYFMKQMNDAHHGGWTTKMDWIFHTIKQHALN
T3 sequence (P27986 whole entry partner, species assumed): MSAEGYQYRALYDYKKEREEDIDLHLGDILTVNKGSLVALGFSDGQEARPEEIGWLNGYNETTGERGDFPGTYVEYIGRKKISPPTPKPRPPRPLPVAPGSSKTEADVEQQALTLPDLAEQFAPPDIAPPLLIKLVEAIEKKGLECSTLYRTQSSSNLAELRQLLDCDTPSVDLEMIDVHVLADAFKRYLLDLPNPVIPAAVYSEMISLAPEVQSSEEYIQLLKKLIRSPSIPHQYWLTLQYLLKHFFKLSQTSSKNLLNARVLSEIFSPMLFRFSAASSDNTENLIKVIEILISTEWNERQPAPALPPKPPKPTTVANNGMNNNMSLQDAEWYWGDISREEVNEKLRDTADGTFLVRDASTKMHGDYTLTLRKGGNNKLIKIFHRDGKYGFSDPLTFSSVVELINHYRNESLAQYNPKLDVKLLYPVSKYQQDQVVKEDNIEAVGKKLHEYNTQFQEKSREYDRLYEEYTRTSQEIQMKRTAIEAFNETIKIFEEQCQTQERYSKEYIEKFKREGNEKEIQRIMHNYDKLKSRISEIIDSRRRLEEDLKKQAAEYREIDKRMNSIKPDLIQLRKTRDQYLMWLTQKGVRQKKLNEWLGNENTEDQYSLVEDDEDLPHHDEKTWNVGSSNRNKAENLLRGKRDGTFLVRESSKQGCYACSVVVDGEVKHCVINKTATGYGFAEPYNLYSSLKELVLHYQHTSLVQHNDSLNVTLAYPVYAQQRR
T1 sequence (O00329 whole entry): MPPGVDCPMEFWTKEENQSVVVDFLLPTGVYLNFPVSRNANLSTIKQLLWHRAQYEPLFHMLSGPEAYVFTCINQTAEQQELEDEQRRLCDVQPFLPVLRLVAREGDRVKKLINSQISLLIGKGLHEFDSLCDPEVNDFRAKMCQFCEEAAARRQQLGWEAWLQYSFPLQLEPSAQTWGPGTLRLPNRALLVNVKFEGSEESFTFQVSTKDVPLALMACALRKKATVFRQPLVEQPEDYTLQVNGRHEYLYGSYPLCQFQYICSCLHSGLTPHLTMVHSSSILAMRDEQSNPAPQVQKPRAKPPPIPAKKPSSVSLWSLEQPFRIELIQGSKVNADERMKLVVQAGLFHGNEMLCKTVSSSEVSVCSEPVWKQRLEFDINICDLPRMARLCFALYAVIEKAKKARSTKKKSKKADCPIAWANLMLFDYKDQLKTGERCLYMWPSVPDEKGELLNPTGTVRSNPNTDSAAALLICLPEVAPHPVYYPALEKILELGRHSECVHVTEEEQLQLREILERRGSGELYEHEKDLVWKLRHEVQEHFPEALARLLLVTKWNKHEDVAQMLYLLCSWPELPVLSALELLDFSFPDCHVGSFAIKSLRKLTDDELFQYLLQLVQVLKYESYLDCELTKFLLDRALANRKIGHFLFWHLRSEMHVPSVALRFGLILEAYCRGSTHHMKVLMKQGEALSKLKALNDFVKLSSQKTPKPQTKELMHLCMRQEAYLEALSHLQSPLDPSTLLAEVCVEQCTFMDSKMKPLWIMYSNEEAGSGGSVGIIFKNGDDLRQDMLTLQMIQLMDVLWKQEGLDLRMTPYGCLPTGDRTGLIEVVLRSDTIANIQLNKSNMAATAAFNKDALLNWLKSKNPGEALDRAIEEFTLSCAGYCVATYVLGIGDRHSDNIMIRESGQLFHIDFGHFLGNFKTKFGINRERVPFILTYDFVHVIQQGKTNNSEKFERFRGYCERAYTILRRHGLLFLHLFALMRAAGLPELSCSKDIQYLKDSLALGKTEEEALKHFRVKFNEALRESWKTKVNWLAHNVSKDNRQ
T1 sequence (P27986 whole entry partner): as the sequence (P27986 whole entry partner, species assumed) above
T2 sequence (P42338 whole entry, species assumed): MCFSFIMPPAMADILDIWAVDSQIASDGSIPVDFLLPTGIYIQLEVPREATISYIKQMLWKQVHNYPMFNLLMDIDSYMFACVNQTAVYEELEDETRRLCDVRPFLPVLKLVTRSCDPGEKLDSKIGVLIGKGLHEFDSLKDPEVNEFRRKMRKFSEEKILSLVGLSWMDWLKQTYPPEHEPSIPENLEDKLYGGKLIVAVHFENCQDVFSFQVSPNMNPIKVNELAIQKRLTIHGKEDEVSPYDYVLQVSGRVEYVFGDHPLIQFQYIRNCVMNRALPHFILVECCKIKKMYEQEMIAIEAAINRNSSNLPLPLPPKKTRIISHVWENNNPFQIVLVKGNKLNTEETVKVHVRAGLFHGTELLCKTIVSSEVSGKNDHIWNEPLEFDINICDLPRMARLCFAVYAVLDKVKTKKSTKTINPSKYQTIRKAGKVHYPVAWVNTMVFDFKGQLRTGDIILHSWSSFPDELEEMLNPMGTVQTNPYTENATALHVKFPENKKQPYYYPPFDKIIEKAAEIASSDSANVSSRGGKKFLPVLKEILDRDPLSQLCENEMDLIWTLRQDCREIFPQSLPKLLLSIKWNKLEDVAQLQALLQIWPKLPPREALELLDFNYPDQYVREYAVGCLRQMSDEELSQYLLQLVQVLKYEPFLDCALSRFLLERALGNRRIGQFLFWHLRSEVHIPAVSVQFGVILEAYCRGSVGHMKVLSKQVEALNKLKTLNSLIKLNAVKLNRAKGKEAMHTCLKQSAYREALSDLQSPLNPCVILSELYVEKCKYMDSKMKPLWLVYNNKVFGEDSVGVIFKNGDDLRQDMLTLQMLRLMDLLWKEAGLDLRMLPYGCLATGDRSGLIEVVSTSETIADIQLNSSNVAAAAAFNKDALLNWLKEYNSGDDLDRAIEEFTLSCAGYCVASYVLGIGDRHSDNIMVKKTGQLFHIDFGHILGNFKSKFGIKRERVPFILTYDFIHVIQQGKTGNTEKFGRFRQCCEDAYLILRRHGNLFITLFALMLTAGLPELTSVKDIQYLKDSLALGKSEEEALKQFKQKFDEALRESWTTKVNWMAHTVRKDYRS
T2 sequence (P27986 whole entry partner, species assumed): as the sequence (P27986 whole entry partner, species assumed) above

Structure (SMILES): N#Cc1c(N)nc(S)nc1-c1ccc(Cl)cc1Cl [Compound 1c, 4-Amino-6–(2,4-dichlorophenyl)-2-mercaptopyrimidine-5-carbonitrile]
- GI50 (RPMI-8226; Homo sapiens, five-dose): 0.6 µM
- LC50 (RPMI-8226; Homo sapiens, five-dose): > 100 µM
- % growth at 10 µM (RPMI-8226; [1]): 9.51%
- TGI (RPMI-8226; five-dose): 27.50 µM
- IC50 (PI3Kδ): 0.0034 ± 0.004 µM
- GI50 (SF-539; Homo sapiens, five-dose): 10.8 µM
- CC50 (SF-539; [2]): 52.4 µM
- % growth at 10 µM (SF-539; [1]): 39.9%
- TGI (SF-539; five-dose): 23.80 µM
- GI50 (DU-145; Homo sapiens, five-dose): 14.9 µM
- LC50 (DU-145; Homo sapiens, five-dose): 57.4 µM
- % growth at 10 µM (DU-145; [1]): 51.3%
- TGI (DU-145; five-dose): 29.20 µM
- GI50 (HOP-92; Homo sapiens, five-dose): 19.8 µM
- LC50 (50% lethal concentration) (HOP-92; Homo sapiens, five-dose): > 100 µM
- % growth at 10 µM (HOP-92; [1]): 105%
- TGI (HOP-92; five-dose): 56.40 µM
- IC50 (PI3Kβ): 0.55 ± 0.002 µM
- % growth at 10 µM (SN12C): 62.1%
- IC50 (PI3Kα): 0.88 ± 0.005 µM
- GI50 (SK-MEL-28; Homo sapiens, five-dose): 15.2 µM
- CC50 (SK-MEL-28; [2]): 60.7 µM
- % cell growth at 10 µM (SK-MEL-28; [1]): 57.7%
- TGI (SK-MEL-28; five-dose): 30.40 µM
